This note sets out measurements from ChEMBL document CHEMBL3244025, “Carbocyclic arabinosyladenine, an adenosine deaminase resistant antiviral agent” (J Med Chem, 1977).

This assay concerns Vaccinia virus. In words: Antiviral activity against Vaccinia virus Lederle Chorioallantoic infected in human Hep2 cells assessed as inhibition of virus-induced cytopathogenic effect. Type of assay: functional, Orthopoxvirus vaccinia, HEp-2.

With `Nc1ncnc2c1ncn2[C@@H]1C[C@H](CO)[C@@H](O)[C@@H]1O` (racemic), the MED50 amounted to 9 µg/mL.
